Test results: patent US12208112B2, “Composition for treating blood cancer using 4′-thio-5-Aza-2′-deoxycytidine and uses thereof” (Southern Research Institute, priority 2020, dated 2025)

Tests used:
Molm13 AML cells = test: Xenograft model with subcutaneously transplanted Molm13 AML cells; assay type: in vivo, mouse; settings: 1.5 or 2.5 mpk PO, one cycle
[1] = Human PK parameter prediction by interspecies (allometric) scaling; settings: for F_human (equation result): in % (unit assumed)
Excerpt: PK parameters were scaled allometrically and used to extrapolate the PK in a 70 kg human. Details are described in the next section.
Simple allometric scaling, was used to predict CL, Vc, Vp, and Q. Y is PK parameter, BW is body weight, a is the allometric coefficient, and b is the allometric exponent. Final PK parameters, CL, Vc, Vp, and Q, were extrapolated based on the best-fit-lines (FIG. 8).
See Musther et al. (2014) European Journal of Pharmaceutical Sciences 57: 280-291.
For absorption rate constant (Ka) and bioavailability (F), animal parameters were used.

MV4-11 AML cells [2] = test: Xenograft AML model with subcutaneously transplanted MV4-11 AML cells, alone and in combination with Venetoclax; assay type: in vivo, mouse; settings: Aza-T-dCyd 2.0 mpk PO alone, Aza-T-dCyd 0.5 mpk with Venetoclax 50 mpk PO, Azacitidine 5.0 mpk IP alone
Excerpt: 5.0 mpk of Azacitidine alone; or 2.5 mpk of Azacitidine in combination of 50 mpk of Venetoclax were intraperitoneal (IP) administered as a control.

[3] = Animal PK, NCA parameters, rat; settings: in vivo
DNMT1 = DNMT1 (Homo sapiens, UniProt P26358); settings: background statement; cited from earlier work
DNMT1, sequence (P26358 whole entry, species assumed): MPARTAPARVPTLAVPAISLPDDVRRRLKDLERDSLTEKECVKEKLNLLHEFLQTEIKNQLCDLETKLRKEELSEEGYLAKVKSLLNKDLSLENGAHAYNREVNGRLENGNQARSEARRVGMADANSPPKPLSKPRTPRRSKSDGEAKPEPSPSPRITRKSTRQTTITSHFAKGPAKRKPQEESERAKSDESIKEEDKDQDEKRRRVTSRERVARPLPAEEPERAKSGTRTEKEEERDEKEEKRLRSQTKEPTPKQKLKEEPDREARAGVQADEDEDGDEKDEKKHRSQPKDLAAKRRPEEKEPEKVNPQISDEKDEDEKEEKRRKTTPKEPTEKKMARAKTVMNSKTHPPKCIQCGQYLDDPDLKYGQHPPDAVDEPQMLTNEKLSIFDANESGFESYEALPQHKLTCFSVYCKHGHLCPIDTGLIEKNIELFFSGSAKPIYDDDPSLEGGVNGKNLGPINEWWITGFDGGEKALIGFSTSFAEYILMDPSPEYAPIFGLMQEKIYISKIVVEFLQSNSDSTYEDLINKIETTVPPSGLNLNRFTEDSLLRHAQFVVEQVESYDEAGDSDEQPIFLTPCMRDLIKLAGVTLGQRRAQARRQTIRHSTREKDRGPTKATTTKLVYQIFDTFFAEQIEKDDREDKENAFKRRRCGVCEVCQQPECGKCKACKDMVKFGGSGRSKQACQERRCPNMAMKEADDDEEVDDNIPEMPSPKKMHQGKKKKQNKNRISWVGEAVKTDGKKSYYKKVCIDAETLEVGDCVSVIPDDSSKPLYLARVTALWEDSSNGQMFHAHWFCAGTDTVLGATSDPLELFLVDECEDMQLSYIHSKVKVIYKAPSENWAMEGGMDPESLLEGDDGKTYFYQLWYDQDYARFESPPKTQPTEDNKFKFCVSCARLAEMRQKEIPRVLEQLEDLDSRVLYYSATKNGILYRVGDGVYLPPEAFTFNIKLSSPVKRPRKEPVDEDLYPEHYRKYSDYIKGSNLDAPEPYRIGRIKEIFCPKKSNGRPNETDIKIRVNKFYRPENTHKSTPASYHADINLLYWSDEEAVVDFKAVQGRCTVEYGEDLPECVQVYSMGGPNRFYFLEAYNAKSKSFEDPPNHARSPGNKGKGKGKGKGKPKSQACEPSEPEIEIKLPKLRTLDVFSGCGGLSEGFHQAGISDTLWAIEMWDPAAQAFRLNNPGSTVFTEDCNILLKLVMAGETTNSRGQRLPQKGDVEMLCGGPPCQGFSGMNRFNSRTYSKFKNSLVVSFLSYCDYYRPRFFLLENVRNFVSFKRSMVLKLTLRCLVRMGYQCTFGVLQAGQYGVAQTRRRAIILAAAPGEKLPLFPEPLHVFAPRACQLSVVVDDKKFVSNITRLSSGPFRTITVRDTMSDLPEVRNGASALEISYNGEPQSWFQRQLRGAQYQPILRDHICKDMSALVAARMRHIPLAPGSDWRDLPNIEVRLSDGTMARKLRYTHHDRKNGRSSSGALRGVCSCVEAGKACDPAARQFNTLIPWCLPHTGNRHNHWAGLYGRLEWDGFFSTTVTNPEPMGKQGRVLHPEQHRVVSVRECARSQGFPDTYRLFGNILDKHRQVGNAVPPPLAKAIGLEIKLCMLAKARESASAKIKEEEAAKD

cytidine deaminase = cytidine deaminase (Homo sapiens, UniProt P32320); settings: compared to conventional compounds with a 5-azacytidine backbone; cited from earlier work
cytidine deaminase, sequence (P32320 whole entry, species assumed): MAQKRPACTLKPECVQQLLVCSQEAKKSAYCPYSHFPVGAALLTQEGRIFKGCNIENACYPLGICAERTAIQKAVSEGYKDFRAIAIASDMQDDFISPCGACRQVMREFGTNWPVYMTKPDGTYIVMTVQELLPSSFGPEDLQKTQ

[4] = tested on: MDS orthotopic animal models; settings: reported in 2018; cited from earlier work
[5] = tested on: blood cancer mouse models; test: Blood cancer mouse models (summary statement); assay type: in vivo; settings: 1.4 to 2.6 mpk PO for 5 days, 2-day break, 9-day break
Mouse PK (AUC) = assay type: in vivo; settings: for AUC: in vivo, mouse
Excerpt: (§1) Without wishing to be bound by theory, this is excellent efficacy at a level that is impossible to reach by the same family of cytidine-based drugs such as decitabine or azacytidine, which was conventionally used, and according to conventional reports on Aza-T-dCyd, the level corresponds to a dose of a level expected to have toxicity.

[6] = Absorption parameters over three species; assay type: in vivo, mice, rats, or dogs
Excerpt: Details are described in the next section. […] See also FIG. 3 and FIG. 7.
The human F calculated by the equation reported in literature was about 0.65 (from mouse), 0.59 (from rat), or 0.66 (from dog). See Musther et al. (2014) European Journal of Pharmaceutical Sciences 57: 280-291.

MV4-11 AML cells [7] = test: Systemic AML model, MV4-11 AML cells transplanted into the bone marrow (survival, clinical observations)
MV4-11 AML cells [8] = test: Blood analysis (CBC sampling) in the systemic AML model; settings: blood samples collected in the AML model experiment
[9] = Animal PK, NCA parameters, mouse; settings: in vivo
[10] = Animal PK, NCA parameters, dog; settings: in vivo
[11] = Simulation of human PK using decitabine PK parameters; settings: from animal parameters, used in human simulation
Excerpt: as §1

normal mouse = test: Bone marrow toxicity after one-cycle PO administration to a normal mouse; assay type: in vivo
Excerpt: In the case of elderly patients who cannot receive bone marrow transplants, that is, the main targets of decitabine and azacytidine, toxicity in the bone marrow becomes the limit dose that determines a dose for administration, and, thus, the maximum dose that enables safe administration was to be determined.

in vivo [12] = settings: rat, iv, 1 mg/kg
[13] = cited from earlier work
in vivo [14] = settings: mouse, iv, 1 mg/kg
in vivo [15] = settings: dog, iv, 0.33 mg/kg
[16] = human decitabine parameter used in simulation

With `Nc1ncn(C2CC(O)C(CO)S2)c(=O)n1` (stereo not drawn) [Aza-T-dCyd, 4′-Thio-5-aza-2′-deoxycytidine] the anticancer efficacy (Molm13 AML cells) was “excellent anticancer efficacy close to tumor regression”, the “F_human (equation result)” value ([1]; From Dog) was 66.28 and the “F_human (equation result)” value ([1]; From Mouse) was 65.16. For the same compound, the “F_human (equation result)” value ([1]; From Rat) was 59.26, the “human Ka” value ([1]; estimated assuming Tmax in a human is 1 hour, value set) was 2.8 h⁻¹ and the “human F calculated by literature equation” value (shortened to “human F calculated”) ([1]; from dog) was ~0.66. The “human F calculated” value ([1]; from mouse) was “about 0.65”, the “human F calculated” value ([1]; from rat) was ~0.59 and the “CL Clearance, Predicted Value” ([1]; predicted for a 70 kg human) was 8.95 L/h. For the same compound, the “F Absolute bioavailability, Predicted Value” ([1]; predicted for a 70 kg human) was 0.6, the “Ka The first-order absorption rate constant, Predicted Value” ([1]; predicted for a 70 kg human) was 2.8 h⁻¹ and the “Q Intercompartmental clearance, Predicted Value” ([1]; predicted for a 70 kg human) was 250.52 L/h. The “Vc Central volume = V2, Predicted Value” ([1]; predicted for a 70 kg human) was 29.50 L, the “Vp Peripheral volume = V3, Predicted Value” ([1]; predicted for a 70 kg human) was 12.92 L and the “human F (set value)” value ([1]; set in consideration of the results) was 0.6. The “anti-cancer effects (tumor volume)” value (MV4-11 AML cells [2]) was “very excellent anti-cancer effects”, the bioavailability [3] was 43.2% and the AUC(0-inf) ([3]; iv, 1 mg/kg) was 1900 ng·h/mL. It also gave a C0 ([3]; iv, 1 mg/kg) of 562 ng/mL, a Vd ([3]; iv, 1 mg/kg) of 3.53 L/kg and a clearance ([3]; iv, 1 mg/kg) of 8.83 mL/min/kg. The half-life ([3]; iv, 1 mg/kg) was 5.01 h, the “DNMT removal and inhibitory activities in cells” value (DNMT1) was “high DNMT removal and inhibitory activities in cells” and the “rate of degradation by cytidine deaminase” value (cytidine deaminase) was “reduced rate of degradation by cytidine deaminase”. The toxicity [4] was “so severe that therapeutic efficacy was not observed”, the anticancer effect [5] was “significant anticancer effect” and the “maximum range of change of total area under curve (AUC)” value (Mouse PK (AUC); 2.0 mpk PO) was “approximately 25%”. The AUC (Mouse PK (AUC); oral, 0.07 mg/kg, 0.07 mpk) was 11.3 ng·h/mL, the AUC (Mouse PK (AUC); oral, 0.13 mg/kg, 0.13 mpk) was 19.3 ng·h/mL and the AUC (Mouse PK (AUC); oral, 0.27 mg/kg, 0.27 mpk) was 38.1 ng·h/mL. For the same compound, the AUC (Mouse PK (AUC); oral, 0.4 mg/kg, 0.4 mpk) was 55.4 ng·h/mL, the AUC (Mouse PK (AUC); oral, 0.8 mg/kg, 0.8 mpk) was 109 ng·h/mL and the AUC (Mouse PK (AUC); oral, 1 mg/kg, 1.0 mpk) was 136 ng·h/mL. The AUC (Mouse PK (AUC); oral, 1.4 mg/kg, 1.4 mpk) was 183 ng·h/mL, the AUC (Mouse PK (AUC); oral, 1.5 mg/kg, 1.5 mpk) was 203 ng·h/mL and the AUC (Mouse PK (AUC); oral, 2.5 mg/kg, 2.5 mpk) was 336 ng·h/mL. It also gave an AUC (Mouse PK (AUC); oral, 2.6 mg/kg, 2.6 mpk) of 355 ng·h/mL, an AUC (Mouse PK (AUC); oral, 3 mg/kg, 3.0 mpk) of 403 ng·h/mL and an AUC (Mouse PK (AUC); oral, 10 mg/kg, 10 mpk) of 1340 ng·h/mL. The AUC (Mouse PK (AUC); po, 2 mg/kg, 2.0 mpk) was 270 ng·h/mL, the “average absorption rate constant (Ka)” value ([6]; average from three species) was “approximately 2.63 h^−1” and the bioavailability ([6]; mouse, rat, dog, in vivo, average from three species, read-out: average bioavailability (F)) was ~54%. For the same compound, the Tmax ([6]; mouse, rat, dog, in vivo, range of the three species) was 0.25 to 2 h, the “therapeutic efficacy against MDS/AML” value (MV4-11 AML cells [7]; 1.4 to 2.6 mpk based on a mouse) was “excellent therapeutic efficacy against MDS/AML” and the efficacy (MV4-11 AML cells [7]; 1.5 mpk PO, three cycles) was “an efficacy which did not reach that of the PO administration of 2.0 to 2.5 mpk of Aza-T-dCyd”. The “clinical observations including body weight” value (MV4-11 AML cells [7]; 2.0 mpk PO, one cycle) was “stay in the normal range”, the “clinical observations including mouse body weight” value (MV4-11 AML cells [7]; 2.0 mpk PO, three cycles) was “remained in the normal range” and the survival improvement (MV4-11 AML cells [7]; 2.0 mpk PO, three cycles) was “very excellent survival improvement”. The death of subjects (MV4-11 AML cells [7]; 2.5 mpk PO, three cycles) was “led to the death of some subjects”, the survival improvement (MV4-11 AML cells [7]; one cycle, Aza-T-dCyd 2.0 mpk PO, decitabine and azacytidine at optimal doses as controls) was “very excellent survival improvement” and the “blood analysis: major parameters (WBC, neutrophil, platelet, RBC levels)” value (MV4-11 AML cells [8]) was “no change in major parameters”. The bioavailability [9] was 50.6%, the AUC(0-inf) ([9]; iv, 1 mg/kg) was 406 ng·h/mL and the C0 ([9]; iv, 1 mg/kg) was 616 ng/mL. For the same compound, the Vd ([9]; iv, 1 mg/kg) was 1.9 L/kg, the clearance ([9]; iv, 1 mg/kg) was 42.3 mL/min/kg and the half-life ([9]; iv, 1 mg/kg) was 0.6 h. For the same compound, the bioavailability [10] was 68.7%, the AUC(0-inf) ([10]; iv, 0.33 mg/kg) was 1130 ng·h/mL and the C0 ([10]; iv, 0.33 mg/kg) was 586 ng/mL. The Vd ([10]; iv, 0.33 mg/kg) was 0.81 L/kg, the clearance ([10]; iv, 0.33 mg/kg) was 5 mL/min/kg and the half-life ([10]; iv, 0.33 mg/kg) was 2.25 h. The “F Absolute bioavailability” value [11] was 0.6, the “Ka The first-order absorption rate constant” value [11] was 2.8 h⁻¹ and the “change in the bone marrow” value (normal mouse; 2.5 mpk PO, one cycle) was “a significant change in the bone marrow started to be observed”. For the same compound, the “viability and composition of each cell in the bone marrow” value (normal mouse; up to 2.0 mpk PO, one cycle (5 days, 2-day break, 5 days, 9-day break)) was “no significant change in the viability and composition of each cell in the bone marrow”.

For `Nc1ncn([C@@H]2O[C@H](CO)[C@@H](O)[C@H]2O)c(=O)n1` [azacytidine, reference compound], the “blood analysis: major parameters (WBC, neutrophil, platelet, RBC levels)” value (MV4-11 AML cells [8]) was “severe neutropenia”.

`Nc1ncn([C@H]2C[C@H](O)[C@@H](CO)O2)c(=O)n1` [decitabine, reference compound] gave an AUC(0-inf) ([3]; iv, 1 mg/kg) of 2370 ng·h/mL, a C0 ([3]; iv, 1 mg/kg) of 504 ng/mL and a Vd ([3]; iv, 1 mg/kg) of 2.16 L/kg. The clearance ([3]; iv, 1 mg/kg) was 7 mL/min/kg, the half-life (in vivo [12]) was 3.71 h and the “Q Intercompartmental clearance” value [13, 16] was 23 L/h. For the same compound, the “Vc Central volume = V2” value [13, 16] was 32 L, the “Vp Peripheral volume = V3” value [13, 16] was 40 L and the “CL Clearance” value ([13]; human, reported in literature, used in human simulation) was 152 L/h. For the same compound, the half-life (in vivo [14]) was 0.4 h, the half-life (in vivo [15]) was 1.19 h and the AUC(0-inf) ([9]; iv, 1 mg/kg) was 268 ng·h/mL. For the same compound, the C0 ([9]; iv, 1 mg/kg) was 579 ng/mL, the Vd ([9]; iv, 1 mg/kg) was 1.7 L/kg and the clearance ([9]; iv, 1 mg/kg) was 62.5 mL/min/kg. It also gave an AUC(0-inf) ([10]; iv, 0.33 mg/kg) of 1080 ng·h/mL, a C0 ([10]; iv, 0.33 mg/kg) of 746 ng/mL and a Vd ([10]; iv, 0.33 mg/kg) of 0.476 L/kg. The clearance ([10]; iv, 0.33 mg/kg) was 5.17 mL/min/kg.
